pEC50: −log10 of the molar value. Where two headings read alike, the source gives them in different places.
Target: T1, human APJ receptor (Homo sapiens, UniProt P35414)
T1 construct: expressed in transfected cells
T1 sequence (P35414 1-380): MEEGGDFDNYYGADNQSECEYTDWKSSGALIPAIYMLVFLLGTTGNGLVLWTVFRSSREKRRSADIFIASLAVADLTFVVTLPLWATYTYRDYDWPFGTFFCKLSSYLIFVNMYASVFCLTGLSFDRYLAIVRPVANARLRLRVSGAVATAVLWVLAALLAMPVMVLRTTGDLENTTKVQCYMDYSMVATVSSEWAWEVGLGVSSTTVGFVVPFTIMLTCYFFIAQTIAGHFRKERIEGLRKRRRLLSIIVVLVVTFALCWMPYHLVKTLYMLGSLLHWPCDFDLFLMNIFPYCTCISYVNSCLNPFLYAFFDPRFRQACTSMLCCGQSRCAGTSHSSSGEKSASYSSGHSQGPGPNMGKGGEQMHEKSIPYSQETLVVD
Assay: Intracellular cAMP accumulation assay (APJ hcAMP, HTRF)
Type: cell-based
Settings: HEK293 cells stably expressing human APJ, forskolin-stimulated cAMP, read-out: Human cAMP EC50
In short: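 Inhibition of forskolin (2 μM)-stimulated cAMP, with […], was measured after 30 min compound exposure at room temperature in stably transfected HEK293 cells. HTRF ratios were converted to cAMP via standard curve, and EC50 values came from variable-slope sigmoidal concentration-response fitting.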

pEC50 (Table 8)	pEC50 (Table 4)	SMILES
7.00 to 8.00		CCNCc1nc(O)c(C(=O)N2CCC(c3ccccc3F)C2)c(O)c1-c1c(OC)cccc1OC (stereo not drawn) [Example 151, 5-(2,6-dimethoxyphenyl)-6-[(ethylamino)methyl]-3-[3-(2-fluorophenyl)pyrrolidine-1-carbonyl]pyridine-2,4-diol]
	8.00 to 11.00	CCCCc1nc(O)c(C(=O)N2CCN(C(=O)c3cccc(Cl)c3Cl)CC2)c(O)c1-c1c(OC)cccc1OC [Example 153, 6-butyl-3-[4-(2,3-dichlorobenzoyl)piperazine-1-carbonyl]-5-(2,6-dimethoxyphenyl)pyridine-2,4-diol]
	8.00 to 11.00	CCCCc1nc(O)c(C(=O)N2CCN(Cc3cccc(F)c3F)CC2)c(O)c1-c1cccc(OC)c1OC [Example 154, 6-butyl-3-{4-[(2,3-difluorophenyl)methyl]piperazine-1-carbonyl}-5-(2,3-dimethoxyphenyl)pyridine-2,4-diol]

Source: US10392347B2, “2,4-dihydroxy-nicotinamides as APJ agonists” (BRISTOL-MYERS SQUIBB COMPANY, priority 2015, dated 2019)
